From patent publication US20260098030A1, “NEGATIVE ALLOSTERIC MODULATORS OF METABOTROPIC GLUTAMATE RECEPTOR 2” (Vanderbilt University, priority 2022, published 2026)

The compounds below were run against T1, rat mGlu2 (Rattus norvegicus, UniProt P31421) (assay: mGlu GIRK cell-based thallium flux assay, rat mGlu2). Details: HEK-293 cells co-expressing rat mGlu2 and GIRK, EC80 glutamate.
T1 construct: expressed in transfected cells; host or cells: HEK-293 cells stably co-expressing GIRK channels
Protocol: Human embryonic kidney (HEK-293) cell lines stably co-expressing human or rat mGlu2 and G protein-coupled inwardly rectifying potassium (GIRK) channels, or human mGlu3 and GIRK, were used for in vitro evaluation of compound activity in thallium flux assay using a fluorescent thallium indicator dye.
The day before the assay, GIRK cells co-expressing human mGlu3, human or rat mGlu2, as described above, were plated in black-walled, clear-bottomed, amine-coated 384-well plates at a density of 15,000 cells/20 μL/well in the assay medium (glutamine-depleted basal DMEM supplemented with 10% dialyzed FBS, 20 mM HEPES, 1 mM sodium pyruvate). Cells were incubated at 37° C. in the presence of 5% CO2. The next day, assay buffer (Hanks balanced salt solution, 20 mM HEPES, 4.16 mM sodium bicarbonate, pH 7.2) was prepared to dilute compounds and Thallos AM fluorescent dye solution. The 2× Thallos dye solution (final concentration 0.34 μM to the cells) was prepared by mixing the dye stock (2.97 mM in DMSO) to 1:1 with 10% pluronic acid before adding to the assay buffer. Cells were washed with assay buffer using a microplate washer to remove the medium, resulting in 20 μL of buffer remaining in each well. Immediately, 20 μL of 2× Thallos dye solution was added to cells, and incubated for one hour at 25° C. During the cell dye loading incubation period, a 10-point concentration serial dilution of compound was created from a 10 mM DMSO compound stock by performing a 1:3 serial dilution in DMSO using the Bravo liquid handler. The 2× compound plate was generated by transferring 0.24 μL of the diluted compound in each well to a daughter plate using an Echo acoustic liquid handler. This is further diluted in 40 μL assay buffer, resulting in a range from 30 μM to 1.5 nM final concentration in the assay. The agonist plate (5×) was prepared to include EC80 glutamate concentration (a concentration to elicit 80% of a maximally effective glutamate concentration) in thallium buffer (125 mM […], 1 mM magnesium sulfate, 1.8 mM calcium sulfate, 5 mM glucose, 10 mM HEPES, pH 7.2, 12.5 mM thallium sulfate).
After dye-loading, cell plates were washed with assay buffer to remove excess extracellular dye using a microplate washer, resulting in 20 μL of buffer remaining in each well. After a ten-minute equilibration period, cell, compound and agonist plates were loaded into a Hamamatsu μCell kinetic imaging plate reader equipped with liquid handler to monitor fluorescence changes at 480 nm excitation and 540 nm emission settings. Briefly, after collection of baseline fluorescence, 20 μL of compound was added and incubated for two minutes and twenty seconds. This is immediately followed by adding 10 μL of glutamate-thallium buffer to the wells containing compound. The fluorescent signal was monitored an additional 2.5 minutes after the glutamate addition. Multiple reference wells containing no compound received either no glutamate (for a baseline reference), EC80 glutamate, or ECmax glutamate (for normalization to maximum response). Fluorescence was measured throughout the experiment at a frequency of 1 measurement per every 2 seconds before the glutamate addition and a frequency of 1 measurement per every 1 second after the glutamate addition. Each compound concentration series occurred one time in each plate, and replicates from two or three plates were used in each experimental run. Thallium solutions were handled and disposed of according to guidelines from the Vanderbilt University Chemical Safety department.
Data were normalized using a static ratio function (F/F0) by dividing every fluorescent measurement by the initial fluorescent value for the corresponding well. The increase in signal resulting from the glutamate/thallium addition of the second add was measured by determining the slope from 3 seconds to 13 seconds after the addition. […]

T1 sequence (P31421 19-872): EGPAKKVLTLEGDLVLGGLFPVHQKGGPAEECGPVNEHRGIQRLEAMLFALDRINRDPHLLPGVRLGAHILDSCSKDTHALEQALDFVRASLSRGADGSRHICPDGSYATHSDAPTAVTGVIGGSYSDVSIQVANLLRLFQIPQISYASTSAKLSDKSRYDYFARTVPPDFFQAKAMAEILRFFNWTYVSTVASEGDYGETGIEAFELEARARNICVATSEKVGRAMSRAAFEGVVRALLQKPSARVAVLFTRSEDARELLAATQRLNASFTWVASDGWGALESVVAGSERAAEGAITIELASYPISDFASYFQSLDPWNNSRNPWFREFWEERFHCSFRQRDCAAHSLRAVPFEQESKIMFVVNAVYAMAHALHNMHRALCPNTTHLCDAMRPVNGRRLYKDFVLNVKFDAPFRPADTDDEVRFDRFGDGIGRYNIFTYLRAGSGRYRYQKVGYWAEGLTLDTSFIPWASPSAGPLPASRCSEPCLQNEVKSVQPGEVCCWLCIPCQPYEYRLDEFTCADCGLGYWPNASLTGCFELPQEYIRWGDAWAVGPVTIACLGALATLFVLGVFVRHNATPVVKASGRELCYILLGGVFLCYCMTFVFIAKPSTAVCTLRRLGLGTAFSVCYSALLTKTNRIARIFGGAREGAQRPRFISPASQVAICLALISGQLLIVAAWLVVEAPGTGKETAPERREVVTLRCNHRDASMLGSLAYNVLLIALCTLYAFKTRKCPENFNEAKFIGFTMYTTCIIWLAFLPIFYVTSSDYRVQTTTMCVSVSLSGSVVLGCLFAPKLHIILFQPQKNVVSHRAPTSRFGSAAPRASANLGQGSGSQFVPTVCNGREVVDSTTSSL

| IC50 | Structure (SMILES) |
| --- | --- |
| > 10 µM | Cc1c(-c2cc3c(cc2-c2ccc(F)cc2)C(=O)NC3)cc(C#N)n1C [Compound 53, 4-(6-(4-fluorophenyl)-1-oxoisoindolin-5-yl)-1,5-dimethyl-1H-pyrrole-2-carbonitrile] |
| > 10 µM | COC1CC=C(c2cc3c(cc2-c2ccc(F)cc2)C(=O)NC3)CC1 (stereo not drawn) [Compound 54, 6-(4-fluorophenyl)-5-(4-methoxycyclohex-1-en-1-yl)isoindolin-1-one] |
| > 10 µM | O=C1NCc2cc(C3=CCOCC3)c(-c3ccc(F)cc3)cc21 [Compound 55, 5-(3,6-dihydro-2H-pyran-4-yl)-6-(4-fluorophenyl)isoindolin-1-one] |
| > 10 µM | O=C1NCc2cc(C3=CCN(Cc4ccccc4)CC3)c(-c3ccc(F)cc3)cc21 [Compound 56, 5-(1-benzyl-1,2,3,6-tetrahydropyridin-4-yl)-6-(4-fluorophenyl)isoindolin-1-one] |
| > 10 µM | CN1CCC=C(c2cc3c(cc2-c2ccc(F)cc2)C(=O)NC3)C1 [Compound 57, 6-(4-fluorophenyl)-5-(1-methyl-1,2,5,6-tetrahydropyridin-3-yl)isoindolin-1-one] |
| > 10 µM | CN1CC=C(c2cc3c(cc2-c2ccc(F)cc2)C(=O)NC3)CC1 [Compound 58, 6-(4-fluorophenyl)-5-(1-methyl-1,2,3,6-tetrahydropyridin-4-yl)isoindolin-1-one] |
| > 10 µM | CC1(C)C=C(c2cc3c(cc2-c2ccc(F)cc2)C(=O)NC3)CC(C)(C)N1 [Compound 59, 6-(4-fluorophenyl)-5-(2,2,6,6-tetramethyl-1,2,3,6-tetrahydropyridin-4-yl)isoindolin-1-one] |
| > 10 µM | O=C1NCc2cc(C3=CCNCC3)c(-c3ccc(F)cc3)cc21 [Compound 60, 6-(4-fluorophenyl)-5-(1,2,3,6-tetrahydropyridin-4-yl)isoindolin-1-one] |
| > 10 µM | O=C1NCc2cc(C3=CCCNC3)c(-c3ccc(F)cc3)cc21 [Compound 61, 6-(4-fluorophenyl)-5-(1,2,5,6-tetrahydropyridin-3-yl)isoindolin-1-one] |
| > 10 µM | CC1C=C(c2cc3c(cc2-c2ccc(F)cc2)C(=O)NC3)CC(C)N1 (stereo not drawn) [Compound 62, 5-(2,6-dimethyl-1,2,3,6-tetrahydropyridin-4-yl)-6-(4-fluorophenyl)isoindolin-1-one] |
| > 10 µM | CN1CCCC(c2cc3c(cc2-c2ccc(F)cc2)C(=O)NC3)C1 (stereo not drawn) [Compound 65, 6-(4-fluorophenyl)-5-(1-methylpiperidin-3-yl)isoindolin-1-one] |
| > 10 µM | CN1CCC(c2cc3c(cc2-c2ccc(F)cc2)C(=O)NC3)CC1 [Compound 66, 6-(4-fluorophenyl)-5-(1-methylpiperidin-4-yl)isoindolin-1-one] |
| > 10 µM | CC1(C)CNCC=C1c1cc2c(cc1-c1ccc(F)cc1)C(=O)NC2 [Compound 76, 5-(3,3-dimethyl-1,2,3,6-tetrahydropyridin-4-yl)-6-(4-fluorophenyl)isoindolin-1-one] |
| > 10 µM | CC1CNCCC1c1cc2c(cc1-c1ccc(F)cc1)C(=O)NC2 (stereo not drawn) [Compound 77, 6-(4-fluorophenyl)-5-(3-methylpiperidin-4-yl)isoindolin-1-one] |
| > 10 µM | O=C1NCc2cc(C3CCCNC3)c(-c3ccc(F)cc3)cc21 (stereo not drawn) [Compound 78, 6-(4-fluorophenyl)-5-(piperidin-3-yl)isoindolin-1-one] |
| > 10 µM | O=C1NCc2cc(C3=CCNC3)c(-c3ccc(F)cc3)cc21 [Compound 82, 5-(2,5-dihydro-1H-pyrrol-3-yl)-6-(4-fluorophenyl)isoindolin-1-one] |
| > 10 µM | O=C1NCc2cc(C3CCNC3)c(-c3ccc(F)cc3)cc21 (stereo not drawn) [Compound 83, 6-(4-fluorophenyl)-5-(pyrrolidin-3-yl)isoindolin-1-one] |
| > 10 µM | CC1CC(c2cc3c(cc2-c2ccc(F)cc2)C(=O)NC3)=CCN1 (stereo not drawn) [Compound 84, 6-(4-fluorophenyl)-5-(2-methyl-1,2,3,6-tetrahydropyridin-4-yl)isoindolin-1-one] |
| > 10 µM | CC1CC(c2cc3c(cc2-c2ccc(F)cc2)C(=O)NC3)CCN1 (stereo not drawn) [Compound 85, 6-(4-fluorophenyl)-5-(2-methylpiperidin-4-yl)isoindolin-1-one] |

Second part, the compound before the results:

| Structure (SMILES) | IC50 |
| --- | --- |
| CC(C)(O)c1ccc(-c2cc3c(cc2-c2ccc(F)cc2)C(=O)NC3)cn1 [Compound 50, 6-(4-fluorophenyl)-5-(6-(2-hydroxypropan-2-yl)pyridin-3-yl)isoindolin-1-one] | > 10 µM |
| O=C1NCc2cc(C3CCCCC3)c(-c3ccc(F)cc3)cc21 [Compound 63, 5-cyclohexyl-6-(4-fluorophenyl)isoindolin-1-one] | 2.62 µM |
| O=C1NCc2cc(C3CCNCC3)c(-c3ccc(F)cc3)cc21 [Compound 67, 6-(4-fluorophenyl)-5-(piperidin-4-yl)isoindolin-1-one] | > 10 µM |
| CC1CC(c2cc3c(cc2-c2ccc(F)cc2)C(=O)NC3)CC(C)N1 (stereo not drawn) [Compound 68, 5-(2,6-dimethylpiperidin-4-yl)-6-(4-fluorophenyl)isoindolin-1-one] | > 10 µM |
| O=C1NCc2cc(-c3ccc(C4CC4)nc3)c(-c3ccc(F)cc3F)cc21 [Compound 70, 5-(6-cyclopropylpyridin-3-yl)-6-(2,4-difluorophenyl)isoindolin-1-one] | 1.98 µM |
| CN(C)c1ncccc1-c1cc2c(cc1-c1ccc(F)cc1F)C(=O)NC2 [Compound 71, 6-(2,4-difluorophenyl)-5-(2-(dimethylamino)pyridin-3-yl)isoindolin-1-one] | 5.1 µM |
| O=C1NCc2cc(-c3cccnc3F)c(-c3ccc(F)cc3F)cc21 [Compound 72, 6-(2,4-difluorophenyl)-5-(2-fluoropyridin-3-yl)isoindolin-1-one] | 0.999 µM |
| Cc1ncccc1-c1cc2c(cc1-c1ccc(F)cc1F)C(=O)NC2 [Compound 73, 6-(2,4-difluorophenyl)-5-(2-methylpyridin-3-yl)isoindolin-1-one] | 4.41 µM |
| CC1(C)CC(c2cc3c(cc2-c2ccc(F)cc2)C(=O)NC3)CC(C)(C)N1 [Compound 75, 6-(4-fluorophenyl)-5-(2,2,6,6-tetramethylpiperidin-4-yl)isoindolin-1-one] | > 10 µM |
| O=C1NCc2cc(-c3ccc(C(F)(F)F)nc3)c(-c3ccc(F)cc3F)cc21 [Compound 79, 6-(2,4-difluorophenyl)-5-(6-(trifluoromethyl)pyridin-3-yl)isoindolin-1-one] | 1.86 µM |
| Cn1ccc(-c2cc3c(cc2-c2ccc(F)cc2F)C(=O)NC3)n1 [Compound 80, 6-(2,4-difluorophenyl)-5-(1-methyl-1H-pyrazol-3-yl)isoindolin-1-one] | 1.09 µM |
| Cc1cc(F)ncc1-c1cc2c(cc1-c1ccc(F)cc1F)C(=O)NC2 [Compound 81, 6-(2,4-difluorophenyl)-5-(6-fluoro-4-methylpyridin-3-yl)isoindolin-1-one] | 1.14 µM |
| O=C1NCc2cc(-c3cnc(C(F)(F)F)nc3)c(-c3ccc(F)cc3F)cc21 [Compound 86, 6-(2,4-difluorophenyl)-5-(2-(trifluoromethyl)pyrimidin-5-yl)isoindolin-1-one] | > 10 µM |
| O=C1NCc2cc(-c3cccnc3)c(-c3ccc(F)cc3F)cc21 [Compound 88, 6-(2,4-difluorophenyl)-5-(pyridin-3-yl)isoindolin-1-one] | 1.65 µM |
| O=C1NCc2cc(-c3ccc4[nH]ccc4c3)c(-c3ccc(F)cc3F)cc21 [Compound 89, 6-(2,4-difluorophenyl)-5-(1H-indol-5-yl)isoindolin-1-one] | 0.925 µM |
| COc1ccc(-c2cc3c(cc2-c2ccc(F)cc2F)C(=O)NC3)cc1C#N [Compound 92, 5-(6-(2,4-difluorophenyl)-1-oxoisoindolin-5-yl)-2-methoxybenzonitrile] | 0.618 µM |
| N#Cc1cc(-c2cc3c(cc2-c2ccc(F)cc2F)C(=O)NC3)ccc1F [Compound 93, 5-(6-(2,4-difluorophenyl)-1-oxoisoindolin-5-yl)-2-fluorobenzonitrile] | 1.5 µM |
